Test results reported in patent US8975398B2, “NAMPT inhibitors” (AbbVie Inc., priority 2012, dated 2015).

Legend:
[1] = molecular target: NAMPT (human, recombinant, C-terminally His-tagged) (Homo sapiens, UniProt P43490); test: Time-Resolved Fluorescence Resonance Energy Transfer (TR-FRET) Binding Assay of NAMPT; details: 6.8 nM NAMPT, 200 nM probe, equilibrated 3 hours, absence of substrates
In short: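 Probe displacement measured by TR-FRET (Ex 337 nm; 520/495 nm ratio) after 3 h room-temperature equilibration of compound with 6.8 nM His-tagged human NAMPT, 1 nM Tb-anti-His antibody and 200 nM Oregon Green 488 nicotinamide-site probe, pH 7.5 HEPES buffer, 2% DMSO. Control-normalized data fit four-parameter logistic for IC50.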

NAMPT = NAMPT (Homo sapiens, UniProt P43490); test: Time-Resolved Fluorescence Resonance Energy Transfer (TR-FRET) Binding Assay of NAMPT with PRPP; details: 2 nM NAMPT, 2 nM probe, 200 uM PRPP and 2.5 mM ATP, equilibrated 16 hours
NAMPT, sequence (P43490 whole entry): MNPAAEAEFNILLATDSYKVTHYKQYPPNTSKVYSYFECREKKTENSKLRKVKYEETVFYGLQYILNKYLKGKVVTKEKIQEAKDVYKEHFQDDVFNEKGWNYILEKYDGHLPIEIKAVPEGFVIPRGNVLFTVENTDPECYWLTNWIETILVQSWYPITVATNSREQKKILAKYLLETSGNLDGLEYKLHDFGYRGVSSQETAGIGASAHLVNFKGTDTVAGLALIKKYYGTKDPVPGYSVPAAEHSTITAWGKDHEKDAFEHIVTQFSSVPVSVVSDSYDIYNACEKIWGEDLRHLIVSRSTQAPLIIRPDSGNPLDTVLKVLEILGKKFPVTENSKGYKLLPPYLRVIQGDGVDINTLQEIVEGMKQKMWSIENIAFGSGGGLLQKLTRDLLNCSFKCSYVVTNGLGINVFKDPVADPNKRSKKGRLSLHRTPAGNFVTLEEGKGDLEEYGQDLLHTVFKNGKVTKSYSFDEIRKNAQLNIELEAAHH
In short: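 Binding measured by TR-FRET after a 16-hour equilibration meant to permit enzymatic compound modification. Substrates present at 200 uM PRPP and 2.5 mM ATP, with 2 nM enzyme, 2 nM probe, 1 nM Tb-anti-His antibody and 2% DMSO final.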

NAMPT (human, recombinant, C-terminally His-tagged), sequence (P43490 whole entry): as above

SMILES | IC50 [1] [nM] | IC50 (NAMPT) [nM]
CC(C)C(=O)N1CCC(c2ccc(NC(=O)C3CN(c4cccnc4)C3)cc2)CC1 [Example 30, N-{4-[1-(2-methylpropanoyl)piperidin-4-yl]phenyl}-1-(pyridin-3-yl)azetidine-3-carboxamide] | 15 | 0.267
CCC(=O)N1CCC(c2ccc(NC(=O)C3CN(c4cccnc4)C3)cc2)CC1 [Example 121, N-[4-(1-propanoylpiperidin-4-yl)phenyl]-1-(pyridin-3-yl)azetidine-3-carboxamide] | 9.94 | 0.169
CCCC(=O)N1CCC(c2ccc(NC(=O)C3CN(c4cccnc4C)C3)cc2)CC1 [Example 194, N-[4-(1-butanoylpiperidin-4-yl)phenyl]-1-(2-methylpyridin-3-yl)azetidine-3-carboxamide] | 122 | 62.6
CC(C)CCN1CCC(Oc2ccc(NC(=O)C3CN(c4cccnc4)C3)cc2)CC1 [Example 77, N-(4-{[1-(3-methylbutyl)piperidin-4-yl]oxy}phenyl)-1-(pyridin-3-yl)azetidine-3-carboxamide] | 3010 | 0.832
O=C1CC[C@@H](C(=O)N2CCC(c3ccc(NC(=O)C4CN(c5cccnc5)C4)cc3)CC2)N1 [Example 114, N-{4-[1-(5-oxo-L-prolyl)piperidin-4-yl]phenyl}-1-(pyridin-3-yl)azetidine-3-carboxamide] | 83.9 | 0.247
O=C(Nc1ccc(OC2CN(C(=O)C3CCCCC3)C2)cc1)C1CN(c2ccnnc2)C1 [Example 255, N-(4-{[1-(cyclohexylcarbonyl)azetidin-3-yl]oxy}phenyl)-1-(pyridazin-4-yl)azetidine-3-carboxamide] | 47.3 | 37.8
O=C(Nc1ccc(C2CCN(C(=O)Cc3cc(F)ccc3F)CC2)cc1)C1CN(c2cccnn2)C1 [Example 373, N-(4-{1-[(2,5-difluorophenyl)acetyl]piperidin-4-yl}phenyl)-1-(pyridazin-3-yl)azetidine-3-carboxamide] | 22.4 | 0.576
O=C(Nc1ccc(OC2CN(C(=O)c3ccc(F)cc3F)C2)cc1)C1CN(c2ccnnc2)C1 [Example 200, N-(4-{[1-(2,4-difluorobenzoyl)azetidin-3-yl]oxy}phenyl)-1-(pyridazin-4-yl)azetidine-3-carboxamide] | 33.1 | 34.4
O=C(Nc1ccc(OC2CCN(C(=O)c3cccc(C(F)(F)F)c3)CC2)cc1)C1CN(c2cccnn2)C1 [Example 222, 1-(pyridazin-3-yl)-N-[4-({1-[3-(trifluoromethyl)benzoyl]piperidin-4-yl}oxy)phenyl]azetidine-3-carboxamide] | 215 | 1.03
O=C(Nc1ccc(C2CCN(CC3CCCCC3)CC2)cc1)C1CN(c2cccnc2)C1 [Example 86, N-{4-[1-(cyclohexylmethyl)piperidin-4-yl]phenyl}-1-(pyridin-3-yl)azetidine-3-carboxamide] | 1260 | 0.833
O=C(Nc1ccc(C2CCN(C(=O)Cc3ccccc3Cl)CC2)cc1)C1CN(c2cccnn2)C1 [Example 369, N-(4-{1-[(2-chlorophenyl)acetyl]piperidin-4-yl}phenyl)-1-(pyridazin-3-yl)azetidine-3-carboxamide] | 18.3 | 0.479
O=C(Nc1ccc(OC2CCN(C(=O)c3cccc(F)c3)CC2)cc1)C1CN(c2cccnn2)C1 [Example 231, N-(4-{[1-(3-fluorobenzoyl)piperidin-4-yl]oxy}phenyl)-1-(pyridazin-3-yl)azetidine-3-carboxamide] | 174 | 0.831
O=C(Nc1ccc(C2CCN(C(=O)c3ccccc3)CC2)cc1)[C@H]1CCN(c2cccnn2)C1 [Example 311, (3S)—N-[4-(1-benzoylpiperidin-4-yl)phenyl]-1-(pyridazin-3-yl)pyrrolidine-3-carboxamide] | 30.2 | 3.96
O=C(Nc1ccc(OC2CCN(C(=O)Cc3ccccc3F)CC2)cc1)C1CN(c2cccnn2)C1 [Example 247, N-[4-({1-[(2-fluorophenyl)acetyl]piperidin-4-yl}oxy)phenyl]-1-(pyridazin-3-yl)azetidine-3-carboxamide] | 86 | 1.02
CCCCCC(=O)N1CCC(c2ccc(NC(=O)C3CN(c4cccnn4)C3)cc2)CC1 [Example 321, N-[4-(1-hexanoylpiperidin-4-yl)phenyl]-1-(pyridazin-3-yl)azetidine-3-carboxamide] | 38.7 | 0.864
O=C(Nc1ccc(OC2CCN(C(=O)c3ccoc3)CC2)cc1)C1CN(c2cccnc2)C1 [Example 54, N-(4-{[1-(furan-3-ylcarbonyl)piperidin-4-yl]oxy}phenyl)-1-(pyridin-3-yl)azetidine-3-carboxamide] | 72.1 | 0.806
CC(C)(C)CC(=O)N1CC(Oc2ccc(NC(=O)C3CN(c4ccnnc4)C3)cc2)C1 [Example 254, N-(4-{[1-(3,3-dimethylbutanoyl)azetidin-3-yl]oxy}phenyl)-1-(pyridazin-4-yl)azetidine-3-carboxamide] | 33.9 | 11.2
CC(C)(C(=O)N1CCC(Oc2ccc(NC(=O)C3CN(c4ccnnc4)C3)cc2)CC1)c1ccccc1 [Example 281, N-(4-{[1-(2-methyl-2-phenylpropanoyl)piperidin-4-yl]oxy}phenyl)-1-(pyridazin-4-yl)azetidine-3-carboxamide] | 20.5 | 14.9
CCOCCC(=O)N1CCC(c2ccc(NC(=O)C3CN(c4cccnc4)C3)cc2)CC1 [Example 115, N-{4-[1-(3-ethoxypropanoyl)piperidin-4-yl]phenyl}-1-(pyridin-3-yl)azetidine-3-carboxamide] | 48.2 | 0.178
O=C(Nc1ccc(OC2CCN(C(=O)c3nccs3)CC2)cc1)C1CN(c2cccnc2)C1 [Example 68, 1-(pyridin-3-yl)-N-(4-{[1-(1,3-thiazol-2-ylcarbonyl)piperidin-4-yl]oxy}phenyl)azetidine-3-carboxamide] | 80.6 | 0.569
Cc1ncccc1N1CC(C(=O)Nc2ccc(C3CCN(C(=O)c4ccc(C(F)(F)F)cc4)CC3)cc2)C1 [Example 157, 1-(2-methylpyridin-3-yl)-N-(4-{1-[4-(trifluoromethyl)benzoyl]piperidin-4-yl}phenyl)azetidine-3-carboxamide] | 1070 | 192
O=C(Nc1ccc(OC2CCN(C(=O)[C@H]3CCCO3)CC2)cc1)[C@H]1CCN(c2cccnc2)C1 [Example 14, (3S)-1-(pyridin-3-yl)-N-[4-({1-[(2R)-tetrahydrofuran-2-ylcarbonyl]piperidin-4-yl}oxy)phenyl]pyrrolidine-3-carboxamide] | 3840 | 3.08
Cc1ccsc1C(=O)N1CCC(c2ccc(NC(=O)C3CN(c4cccnc4C)C3)cc2)CC1 [Example 171, 1-(2-methylpyridin-3-yl)-N-(4-{1-[(3-methylthiophen-2-yl)carbonyl]piperidin-4-yl}phenyl)azetidine-3-carboxamide] | 19.7 | 37.9
O=C(Nc1ccc(C2CCN(C(=O)CN3CCOCC3)CC2)cc1)C1CN(c2cccnc2)C1 [Example 103, N-{4-[1-(morpholin-4-ylacetyl)piperidin-4-yl]phenyl}-1-(pyridin-3-yl)azetidine-3-carboxamide] | 56.2 | 0.493
